Results: ChEMBL document CHEMBL1201862, “PubChem BioAssay data set” (2004)
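The compound was tested at five concentrations on cells cultured in 96-well plates, with a 48-hour exposure period. GI50 is the concentration that inhibits growth by half.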 Activity calls are given as the source filed them. Cut-off read from the data, not from the text of the source: active = GI50 up to about 1.1 µM and inactive = higher.

How the values were obtained:
Assay in all cases: NCI-60 cell line screen, 48 h
786-0 = system: 786-0
A498 = system: A498
A549 = system: A549
ACHN = system: ACHN
BT-549 = system: BT-549
CAKI-1 = system: CAKI-1
CCRF-CEM = system: CCRF-CEM
COLO 205 = system: COLO 205
DU-145 = system: DU-145
EKVX = system: EKVX
HCC 2998 = system: HCC 2998
HCT-116 = system: HCT-116
HCT-15 = system: HCT-15
HL-60 = system: HL-60
HOP-62 = system: HOP-62
HT-29 = system: HT-29
Hs-578T = system: Hs-578T
IGROV-1 = system: IGROV-1
K562 = system: K562
KM12 = system: KM12
LOX IMVI = system: LOX IMVI
M14 = system: M14
MCF7 = system: MCF7
MDA-MB-231 = system: MDA-MB-231
MDA-MB-435 = system: MDA-MB-435
MDA-N = system: MDA-N
MOLT-4 = system: MOLT-4
Malme-3M = system: Malme-3M
NCI-H226 = system: NCI-H226
NCI-H23 = system: NCI-H23
NCI-H460 = system: NCI-H460
NCI-H522 = system: NCI-H522
NCI/ADR-RES = system: NCI/ADR-RES
OVCAR-3 = system: OVCAR-3
OVCAR-4 = system: OVCAR-4
OVCAR-5 = system: OVCAR-5
OVCAR-8 = system: OVCAR-8
PC-3 = system: PC-3
RPMI-8226 = system: RPMI-8226
RXF 393 = system: RXF 393
SF-268 = system: SF-268
SF-295 = system: SF-295
SF-539 = system: SF-539
SK-MEL-28 = system: SK-MEL-28
SK-MEL-2 = system: SK-MEL-2
SK-MEL-5 = system: SK-MEL-5
SK-OV-3 = system: SK-OV-3
SN12C = system: SN12C
SNB-19 = system: SNB-19
SNB-75 = system: SNB-75
SR = system: SR
SW-620 = system: SW-620
T47D = system: T47D
TK-10 = system: TK-10
U-251 = system: U-251
UACC-257 = system: UACC-257
UACC-62 = system: UACC-62
UO-31 = system: UO-31
HOP-92 = system: HOP-92

## O=C1[C@H](c2ccccc2)C2c3ccccc3CCN12 (some centres undefined)
786-0
  GI50: > 10 µM (inactive)
A498
  GI50: > 10 µM (inactive)
A549
  GI50: > 10 µM (inactive)
ACHN
  GI50: > 10 µM (inactive)
BT-549
  GI50: > 10 µM (inactive)
CAKI-1
  GI50: > 10 µM (inactive)
CCRF-CEM
  GI50: > 10 µM (inactive)
COLO 205
  GI50: > 10 µM (inactive)
DU-145
  GI50: > 10 µM (inactive)
EKVX
  GI50: > 10 µM (inactive)
HCC 2998
  GI50: > 10 µM (inactive)
HCT-116
  GI50: > 10 µM (inactive)
HCT-15
  GI50: > 10 µM
HL-60
  GI50: > 10 µM (inactive)
HOP-62
  GI50: > 10 µM (inactive)
HT-29
  GI50: > 10 µM (inactive)
Hs-578T
  GI50: > 10 µM (inactive)
IGROV-1
  GI50: > 10 µM (inactive)
K562
  GI50: > 10 µM (inactive)
KM12
  GI50: > 10 µM (inactive)
LOX IMVI
  GI50: > 10 µM (inactive)
M14
  GI50: > 10 µM (inactive)
MCF7
  GI50: > 10 µM (inactive)
MDA-MB-231
  GI50: > 10 µM (inactive)
MDA-MB-435
  GI50: > 10 µM (inactive)
MDA-N
  GI50: > 10 µM (inactive)
MOLT-4
  GI50: > 10 µM (inactive)
Malme-3M
  GI50: 0.897 µM (active)
NCI-H226
  GI50: > 10 µM (inactive)
NCI-H23
  GI50: > 10 µM (inactive)
NCI-H460
  GI50: > 10 µM (inactive)
NCI-H522
  GI50: > 10 µM (inactive)
NCI/ADR-RES
  GI50: > 10 µM (inactive)
OVCAR-3
  GI50: > 10 µM (inactive)
OVCAR-4
  GI50: > 10 µM (inactive)
OVCAR-5
  GI50: > 10 µM (inactive)
OVCAR-8
  GI50: > 10 µM (inactive)
PC-3
  GI50: > 10 µM (inactive)
RPMI-8226
  GI50: > 10 µM (inactive)
RXF 393
  GI50: > 10 µM (inactive)
SF-268
  GI50: > 10 µM (inactive)
SF-295
  GI50: > 10 µM (inactive)
SF-539
  GI50: > 10 µM (inactive)
SK-MEL-28
  GI50: > 10 µM (inactive)
SK-MEL-2
  GI50: > 10 µM (inactive)
SK-MEL-5
  GI50: > 10 µM (inactive)
SK-OV-3
  GI50: > 10 µM (inactive)
SN12C
  GI50: > 10 µM (inactive)
SNB-19
  GI50: > 10 µM (inactive)
SNB-75
  GI50: > 100 µM (inactive)
SR
  GI50: > 10 µM (inactive)
SW-620
  GI50: > 10 µM (inactive)
T47D
  GI50: > 10 µM (inactive)
TK-10
  GI50: > 10 µM (inactive)
U-251
  GI50: > 10 µM (inactive)
UACC-257
  GI50: > 10 µM (inactive)
UACC-62
  GI50: > 10 µM (inactive)
UO-31
  GI50: > 100 µM (inactive)

## CCCC(=O)NC(Nc1cc(C)ccn1)(C(=O)OCC)C(F)(F)F (centres undefined)
786-0
  GI50: > 100 µM (inactive)
A549
  GI50: > 100 µM (inactive)
ACHN
  GI50: > 100 µM (inactive)
BT-549
  GI50: > 100 µM (inactive)
CAKI-1
  GI50: > 100 µM (inactive)
CCRF-CEM
  GI50: > 100 µM (inactive)
COLO 205
  GI50: > 100 µM (inactive)
DU-145
  GI50: > 100 µM (inactive)
EKVX
  GI50: > 100 µM (inactive)
HCC 2998
  GI50: > 100 µM (inactive)
HCT-116
  GI50: > 100 µM (inactive)
HCT-15
  GI50: > 100 µM
HL-60
  GI50: > 100 µM (inactive)
HOP-62
  GI50: > 100 µM (inactive)
HOP-92
  GI50: 91 µM (inactive)
HT-29
  GI50: > 100 µM (inactive)
Hs-578T
  GI50: > 100 µM (inactive)
IGROV-1
  GI50: > 100 µM (inactive)
K562
  GI50: > 100 µM (inactive)
KM12
  GI50: > 100 µM (inactive)
LOX IMVI
  GI50: > 100 µM (inactive)
M14
  GI50: > 100 µM (inactive)
MCF7
  GI50: > 100 µM (inactive)
MDA-MB-231
  GI50: > 100 µM (inactive)
MDA-MB-435
  GI50: > 100 µM (inactive)
MDA-N
  GI50: > 100 µM (inactive)
MOLT-4
  GI50: > 100 µM (inactive)
Malme-3M
  GI50: > 100 µM (inactive)
NCI-H226
  GI50: > 100 µM (inactive)
NCI-H23
  GI50: > 100 µM (inactive)
NCI-H522
  GI50: > 100 µM (inactive)
NCI/ADR-RES
  GI50: > 100 µM (inactive)
OVCAR-3
  GI50: > 100 µM (inactive)
OVCAR-4
  GI50: > 100 µM (inactive)
OVCAR-5
  GI50: > 100 µM (inactive)
OVCAR-8
  GI50: > 100 µM (inactive)
PC-3
  GI50: > 100 µM (inactive)
RPMI-8226
  GI50: > 100 µM (inactive)
RXF 393
  GI50: > 100 µM (inactive)
SF-268
  GI50: > 100 µM (inactive)
SF-295
  GI50: > 100 µM (inactive)
SF-539
  GI50: > 100 µM (inactive)
SK-MEL-28
  GI50: > 100 µM (inactive)
SK-MEL-2
  GI50: > 100 µM (inactive)
SK-MEL-5
  GI50: > 100 µM (inactive)
SK-OV-3
  GI50: > 100 µM (inactive)
SN12C
  GI50: > 100 µM (inactive)
SNB-19
  GI50: > 100 µM (inactive)
SNB-75
  GI50: > 100 µM (inactive)
SR
  GI50: > 100 µM (inactive)
SW-620
  GI50: > 100 µM (inactive)
T47D
  GI50: > 100 µM (inactive)
TK-10
  GI50: > 100 µM (inactive)
U-251
  GI50: > 100 µM (inactive)
UACC-257
  GI50: > 100 µM (inactive)
UACC-62
  GI50: > 100 µM (inactive)
UO-31
  GI50: > 100 µM (inactive)

## CCCCCCCCCCCC[C@@H](O)[C@H]1CC[C@H]([C@H]2CC[C@H]([C@H](O)CC[C@H](O)CCCCCCCC3=C[C@H](C)OC3=O)O2)O1
786-0
  GI50: 2.4 µM (inactive)
A498
  GI50: 2.52 µM (inactive)
A549
  GI50: 1.35 µM (inactive)
ACHN
  GI50: 0.0933 µM (active)
BT-549
  GI50: 0.00352 µM (active)
CAKI-1
  GI50: 2.67 µM (inactive)
CCRF-CEM
  GI50: 1.09 µM (active)
COLO 205
  GI50: 1.86 µM (inactive)
DU-145
  GI50: 3.38 µM (inactive)
EKVX
  GI50: 1.1 µM (active)
HCT-116
  GI50: 1.23 µM (inactive)
HCT-15
  GI50: 2.03 µM
HL-60
  GI50: 1.26 µM (inactive)
HOP-62
  GI50: 1.57 µM (inactive)
HOP-92
  GI50: 2.16 µM (inactive)
HT-29
  GI50: 1.76 µM (inactive)
Hs-578T
  GI50: 2.18 µM (inactive)
IGROV-1
  GI50: 1.65 µM (inactive)
K562
  GI50: 1.05 µM (active)
KM12
  GI50: 1.44 µM (inactive)
LOX IMVI
  GI50: 1.17 µM (inactive)
M14
  GI50: 1.64 µM (inactive)
MCF7
  GI50: 1.15 µM (inactive)
MDA-MB-231
  GI50: 2.62 µM (inactive)
MDA-MB-435
  GI50: 1.77 µM (inactive)
MDA-N
  GI50: 1.9 µM (inactive)
MOLT-4
  GI50: 1.84 µM (inactive)
NCI-H226
  GI50: 1.67 µM (inactive)
NCI-H23
  GI50: 0.0201 µM (active)
NCI-H460
  GI50: 1.08 µM (active)
NCI/ADR-RES
  GI50: 1.29 µM (inactive)
OVCAR-3
  GI50: 1.58 µM (inactive)
OVCAR-5
  GI50: 1.69 µM (inactive)
OVCAR-8
  GI50: 1.82 µM (inactive)
PC-3
  GI50: 1.55 µM (inactive)
RPMI-8226
  GI50: 1.2 µM (inactive)
RXF 393
  GI50: 2.12 µM (inactive)
SF-268
  GI50: 1.55 µM (inactive)
SF-295
  GI50: 1.26 µM (inactive)
SF-539
  GI50: 1.68 µM (inactive)
SK-MEL-28
  GI50: 1.63 µM (inactive)
SK-MEL-2
  GI50: 1.52 µM (inactive)
SK-MEL-5
  GI50: 1.38 µM (inactive)
SN12C
  GI50: 3.22 µM (inactive)
SNB-19
  GI50: 1.23 µM (inactive)
SNB-75
  GI50: 1.75 µM (inactive)
SR
  GI50: 2.03 µM (inactive)
SW-620
  GI50: 1.94 µM (inactive)
T47D
  GI50: 3.4 µM (inactive)
TK-10
  GI50: 1.21 µM (inactive)
U-251
  GI50: 2.13 µM (inactive)
UACC-257
  GI50: 0.136 µM (active)
UACC-62
  GI50: 1.02 µM (active)
UO-31
  GI50: 0.562 µM (active)
